Here are results for 80 compounds from the METLIN SMRT retention time set (Domingo-Almenara et al. 2019).

SMILES strings stand for the structures.

The series can be described thus: gradient 5% acetonitrile 3 min, to 50% in 2 min, to 85% in 15 min, held 3 min, 100 µL/min. Particulars: column: Zorbax Extend-C18 2.1 x 50 mm; eluents: water / acetonitrile, 0.1% formic acid. The essentials: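 In both positive and negative ionization mode, a quadrupole time-of-flight mass spectrometer coupled to HPLC analyzed pure standards run in mixtures of ~100 molecules. The Zorbax Extend-C18 column (2.1 × 50 mm, 1.8 μm) was operated at 100 μL/min with water and acetonitrile, each containing 0.1% formic acid. The dead volume was 40 μL and the dwell volume 900 μL. Retention time came from adduct peaks that were computationally picked and individually inspected by hand.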
Compound `COC(=O)c1cnc2nc(C)ccc2c1Nc1ccc(C)c(Cl)c1` had an RP-LC retention time of 733 s.

As to `O=C(c1ccco1)N1CCN(c2ccc3cc(S(=O)(=O)N4CCOCC4)ccc3n2)CC1`, the RP-LC retention time amounted to 661 s. With `Cc1ccc(NC(=O)C2CCN(S(=O)(=O)c3cn(C)cn3)CC2)cc1`, the RP-LC retention time is 701 s. With `CCCc1ccc(S(=O)(=O)N2C[C@@H](F)C[C@H]2C(=O)N2CCc3ccccc3C2)cc1`, the RP-LC retention time worked out at 1060 s. Take `CC(Oc1ccc(=O)n(-c2ccc(F)cc2)n1)C(=O)Nc1ccccc1Cl` (stereo not given): the RP-LC retention time came to 826 s.

`COc1cccc(NC(=O)Cn2nc3n(c2=O)CCCCC3)c1` returned an RP-LC retention time of 668 s.

In the case of `O=C(Nc1ccc(-c2nnc3n2CCCC3)cc1)c1ccco1`, the RP-LC retention time is 609 s.

Take `Cc1cc(NS(=O)(=O)c2cc3n(c2)CCN(C)C3=O)ccc1F`: the RP-LC retention time was determined as 698 s. The compound `O=C(NC1CCN(c2cc(-c3cccs3)[nH]n2)C1)c1cccnc1` (stereo not given) registered an RP-LC retention time of 618 s. The value for `Cn1cnnc1-c1nn(C)c2c1CN(C(=O)CCc1cc(Cl)no1)CC2` was 629 s; that for `COc1ccc(C(C)NC(=O)c2cn3cc(C)ccc3n2)cc1OC` (stereo not given) was 630 s. With `O=C(CCc1ccccc1)Nc1nnc(SCC(=O)c2ccccc2)s1`, the RP-LC retention time worked out at 892 s. The value for `Cc1nnc(-c2cn(CC(=O)Nc3ccc(Br)cc3F)c3ccccc23)o1` was 890 s; that for `COCCOCc1nc(C2CCCCN2C(=O)NC(C)C)no1` (stereo not given) was 667 s. With `CCCN1CCC(c2cccc(S(C)(=O)=O)c2)CC1` the figure was 600 s; with `O=C(Nc1ccc(N2CCN(Cc3ccccc3)C2=O)nc1)C1CCC1`, 737 s.

`NC(=O)c1ccc(-c2nc(-c3ccc4c(c3)OCO4)c(-c3ccccn3)[nH]2)cc1`: the RP-LC retention time was determined as 647 s. With `Cc1cc(F)ccc1NC(=O)Cn1ccc2sccc2c1=O` the figure was 726 s. With `COc1ccc(-c2cc3nn(CC(=O)Nc4ccccc4OC)c(=O)n3c(C)n2)cc1` the figure was 736 s. The value for `Cc1c(S(=O)(=O)NCC(c2cccnc2)c2cn(C)c3ccccc23)cnn1C(F)F` (stereo not given) was 698 s; that for `COCCNC(=O)CCc1nc2ccccc2[nH]c1=O` was 591 s; that for `Cc1ccc2c(c1)N(Cc1nc(-c3ccccc3Cl)no1)C(=O)CO2` was 1040 s. With `CCc1noc(NC(C)=O)c1-c1ccc(OC)c(S(=O)(=O)Nc2cccc(F)c2)c1`, the RP-LC retention time was 794 s. The value for `Cc1ccc(-c2csc(NC(=O)c3ccc4c(c3)OCO4)n2)cc1C` was 1100 s; that for `CCc1nc(-c2csc(S(=O)(=O)N3CCCC(C(=O)Nc4ccc(C)c(Cl)c4)C3)c2)no1` (stereo not given) was 1180 s. As for `NC(=O)Cc1csc(SCC(=O)c2ccc3c(c2)OCO3)n1`, the RP-LC retention time came out at 648 s.

Consider `Cc1cc(NC(=O)C(=O)c2c[nH]c3ccccc23)ccc1Br`, for which the RP-LC retention time amounted to 1120 s. The value for `Cc1ccccc1S(=O)(=O)N1CCC(c2cc(N)on2)CC1` was 779 s; that for `O=C(Cn1c(=O)c2cccn2c2ccccc21)Nc1ccccc1F` was 824 s; that for `Cn1nc(C(=O)N2CCCCC2)c2c1CCN(C(=O)CCC(=O)NC1CCCC1)C2` was 666 s. The value for `CN(C)c1ccc(C(=O)NCC(=O)Nc2nc3ccccc3[nH]2)cc1` was 625 s; that for `CC(C)(C)c1noc(-c2ccnc(-n3cnc(C(=O)NC4CC4)c3)c2)n1` was 877 s. Regarding `O=C(c1cccs1)N1CCCCC1c1nncn1-c1ccccc1` (stereo not given), the RP-LC retention time was 705 s. Compound `CC1CCCCN1CCCNC(=O)Cn1ccc2cc(S(=O)(=O)N3CCCCC3)ccc21` (stereo not given) came in with an RP-LC retention time of 670 s. The value for `Cc1cc(=O)n(Cc2cccc(F)c2)c(N2CCSCC2)n1` was 946 s; that for `CC(C)n1c(=O)oc2cc(-c3noc(-c4cccc5[nH]ccc45)n3)ccc21` was 1080 s. With `CCc1noc(-c2ccnc(-n3cnc(C(=O)NCc4ccccc4C)c3)c2)n1` the figure was 939 s; with `Cc1ccc(-c2nc(-c3ccc4c(c3)nc(C)c(=O)n4C)no2)c(C)c1`, 1220 s; with `O=C(NCCN1CCOCC1)c1c2c(nc3ccccc13)C(=O)N(C1CCCCC1)C2`, 599 s. For the compound `O=C(c1cc(S(=O)(=O)N2CCCC(C(=O)N3CCOCC3)C2)c[nH]1)N1CCCC1` (stereo not given), the RP-LC retention time is 638 s. The value for `COc1cc(N2C=C(C#N)S(=O)(=O)c3c(F)cccc32)cc(OC)c1OC` was 857 s. With `COc1ccccc1N1CCN(c2ccnc(SCC(=O)Nc3ccccc3C)n2)CC1`, the RP-LC retention time stood at 666 s.

`COc1cc([C@@H]2c3cc4c(cc3[C@H](O)[C@@H](CO)[C@@H]2C(=O)NC2CCCC2)OCO4)cc(OC)c1OC` registered an RP-LC retention time of 689 s. With `COc1cc(C(=O)NCCc2c[nH]c3ccc(F)cc23)cc(OC)c1OC` the figure was 781 s; with `CC[C@H](NC(=O)c1c(C)c(-c2ccccc2)nc2ccccc12)c1ccccc1`, 1060 s. With `COc1ccc(-c2ccc(CNc3ncn[nH]3)o2)cc1Cl` the figure was 673 s. `Cc1ccc(CNC(=O)C(=O)NCCO)cc1` showed an RP-LC retention time of 600 s. The value for `CCCOc1ccc(CN2CCC3(CCC3O)CC2)cc1OC` (stereo not given) was 629 s.

`CCOc1ccc2cccc(NC(=O)c3ccccc3C(F)(F)F)c2n1`: the RP-LC retention time worked out at 1200 s. With `CCc1nnc2nc(N3CCN(C(=O)c4ccccc4)CC3)cc(C)n12` the figure was 597 s. The value for `Cc1cccc(N2C=C(C(=O)N3CCOCC3)S(=O)(=O)c3ccc(F)cc32)c1` was 793 s. With `CC1(C(=O)NCc2ccccc2)CCN(S(=O)(=O)c2cccc(C#N)c2)CC1` the figure was 862 s; with `COc1nc2ccccc2nc1N1CCCC(C(=O)Nc2cccc(F)c2)C1` (stereo not given), 1170 s; with `COc1ccc(N2CC(NC(=O)NN3CCOCC3)CC2=O)cc1` (stereo not given), 587 s.

Compound `COc1ccc(CC(=O)NCc2c(C)nc3sc(C)nn23)cc1Cl` gave an RP-LC retention time of 629 s. With `CCn1ccc(C(=O)Nc2ccc(OCc3nnc(-c4ccccc4)o3)cc2)n1` the figure was 868 s. The value for `O=C(NCCCN1CCOCC1)C1CCCN(c2ccc(=O)n(-c3cccc(Cl)c3)n2)C1` (stereo not given) was 610 s. For `Cc1cc(Cl)ccc1S(=O)(=O)N1CCc2c(c(CN3CCCC3)nn2C)C1`, the RP-LC retention time was 679 s.

Compound `CCC(C(=O)NCc1ccc2c(c1)OCO2)n1ccc2cc(S(=O)(=O)N3CCCCC3)ccc21` (stereo not given) came in with an RP-LC retention time of 1020 s. The value for `Cc1sc(-c2ccn[nH]2)cc1NC(=O)c1ccc2nc[nH]c2c1` was 670 s. The value for `Cn1nc(-c2nnc(-c3ccccc3Cl)o2)c2c1CCN(C(=O)c1ccco1)C2` was 784 s; that for `CCn1cnc2ccc(-c3noc(-c4ccc(OC)c(OC)c4)n3)cc21` was 698 s; that for `CSc1ccc(-c2nc3ccccn3c2Nc2ccc3c(c2)OCO3)cc1` was 711 s. The value for `CC1CN(c2ccc(Br)cc2)c2nc3c(c(=O)n(CC(=O)O)c(=O)n3C)n2C1` (stereo not given) was 829 s; that for `Cc1ccc(S(=O)(=O)c2cnc(N3CCC(C(N)=O)(N4CCCCC4)CC3)nc2N)cc1C` was 654 s; that for `CC(C)c1cccc(NC(=O)Cn2cc(-c3nc(-c4cccs4)no3)ccc2=O)c1` was 962 s. Compound `CC(NC(=O)CCCN1C(=O)CCn2nc(-c3cn(C)c4ccccc34)cc21)c1ccccc1` (stereo not given) came in with an RP-LC retention time of 791 s.

As for `CCNC(=O)N1CCCC(c2cccc(C(=O)NCc3cccc(C(F)(F)F)c3)c2)C1` (stereo not given), the RP-LC retention time came out at 900 s.

For `Cc1ccc2sc(N(CCCn3ccnc3)C(=O)c3ccc4c(c3)OCCO4)nc2c1C`, the RP-LC retention time was 636 s. With `COc1ccc2c(c1)C1(CCN(S(=O)(=O)c3cc(OC)ccc3OC)C1)C(=O)N2C` (stereo not given) the figure was 879 s; with `Cc1cc2c(cc1S(=O)(=O)N1CCCC1C(=O)NCCCc1ccccc1)OC(C)C(=O)N2` (stereo not given), 822 s; with `Clc1cccc(-c2noc(Cc3nc(-c4ccc5c(c4)OCO5)cs3)n2)c1`, 1250 s. The value for `CCOc1cccc(C2c3[nH]c4ccccc4c3CCN2C(=O)C2CC2)c1` (stereo not given) was 1100 s; that for `Cc1ccc(NC(=O)Cn2ncc3c(c2=O)N(CC2CC2)C(=O)CS3)c(C)c1` was 782 s; that for `Cc1cc(C(=O)N2CC(Oc3ccc(-c4nc(-c5ccccc5)no4)cc3)C2)n(C)n1` was 1060 s. Compound `Cn1ncc2c3ccccc3n(CCCC(=O)N3CCN(c4ccccn4)CC3)c2c1=O` yielded an RP-LC retention time of 607 s. With `COc1cccc(-c2noc(NC3CC3)n2)c1OC` the figure was 752 s; with `Cc1noc2ncn(CC(=O)Nc3ccc(F)cc3F)c(=O)c12`, 744 s; with `CC(NC(=O)Cc1cccc(F)c1)C(=O)Nc1nc2ccccc2[nH]1` (stereo not given), 640 s. In turn, `CCOc1cccc(CNC(=O)c2cn3ccc(C)cc3n2)c1` displayed an RP-LC retention time of 671 s.
